Activity calls are given as the source filed them.
What was measured:
[1] = biological target: Atypical kinase COQ8A, mitochondrial (Homo sapiens, UniProt Q8NI60)
[2] = biological target: DnaJ homolog subfamily A member 1 (Homo sapiens, UniProt P31689)
[3] = biological target: T1, Mitogen-activated protein kinase kinase kinase 6 (Homo sapiens, UniProt O95382)
T1 sequence (O95382 whole entry): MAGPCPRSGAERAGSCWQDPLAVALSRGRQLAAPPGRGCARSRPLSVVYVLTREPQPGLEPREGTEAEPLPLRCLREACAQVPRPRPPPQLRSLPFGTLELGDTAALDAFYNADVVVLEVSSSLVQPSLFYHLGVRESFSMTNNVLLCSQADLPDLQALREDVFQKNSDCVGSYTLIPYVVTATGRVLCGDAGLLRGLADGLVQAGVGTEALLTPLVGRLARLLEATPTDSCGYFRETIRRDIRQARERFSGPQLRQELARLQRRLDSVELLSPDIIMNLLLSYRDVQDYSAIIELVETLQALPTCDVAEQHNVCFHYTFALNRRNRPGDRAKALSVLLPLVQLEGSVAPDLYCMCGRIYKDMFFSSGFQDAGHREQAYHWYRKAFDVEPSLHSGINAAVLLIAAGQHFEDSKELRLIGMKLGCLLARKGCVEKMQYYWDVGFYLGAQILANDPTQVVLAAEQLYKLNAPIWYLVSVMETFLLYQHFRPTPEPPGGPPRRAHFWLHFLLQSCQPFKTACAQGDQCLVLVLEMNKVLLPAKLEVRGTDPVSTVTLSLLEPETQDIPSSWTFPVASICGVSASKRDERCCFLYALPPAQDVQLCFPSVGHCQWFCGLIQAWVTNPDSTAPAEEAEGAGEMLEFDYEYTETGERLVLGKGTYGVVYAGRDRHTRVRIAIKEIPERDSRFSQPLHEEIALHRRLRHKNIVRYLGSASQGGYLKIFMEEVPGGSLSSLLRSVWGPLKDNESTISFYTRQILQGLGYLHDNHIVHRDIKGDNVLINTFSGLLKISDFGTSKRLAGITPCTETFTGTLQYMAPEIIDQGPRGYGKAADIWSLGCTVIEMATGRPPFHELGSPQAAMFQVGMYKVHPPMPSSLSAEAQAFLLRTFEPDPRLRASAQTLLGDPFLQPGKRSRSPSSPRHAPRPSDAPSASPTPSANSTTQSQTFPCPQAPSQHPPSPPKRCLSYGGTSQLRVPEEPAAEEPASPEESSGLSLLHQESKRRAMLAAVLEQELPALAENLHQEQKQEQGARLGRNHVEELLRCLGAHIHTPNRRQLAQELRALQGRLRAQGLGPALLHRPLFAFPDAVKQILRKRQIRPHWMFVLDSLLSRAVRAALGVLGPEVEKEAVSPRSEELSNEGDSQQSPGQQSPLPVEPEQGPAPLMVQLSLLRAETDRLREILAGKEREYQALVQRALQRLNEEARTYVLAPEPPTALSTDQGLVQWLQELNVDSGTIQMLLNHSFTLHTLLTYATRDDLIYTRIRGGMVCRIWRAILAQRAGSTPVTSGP

[4] = biological target: T2, Dual specificity mitogen-activated protein kinase kinase 6 (Homo sapiens, UniProt P52564)
T2 sequence (P52564 whole entry): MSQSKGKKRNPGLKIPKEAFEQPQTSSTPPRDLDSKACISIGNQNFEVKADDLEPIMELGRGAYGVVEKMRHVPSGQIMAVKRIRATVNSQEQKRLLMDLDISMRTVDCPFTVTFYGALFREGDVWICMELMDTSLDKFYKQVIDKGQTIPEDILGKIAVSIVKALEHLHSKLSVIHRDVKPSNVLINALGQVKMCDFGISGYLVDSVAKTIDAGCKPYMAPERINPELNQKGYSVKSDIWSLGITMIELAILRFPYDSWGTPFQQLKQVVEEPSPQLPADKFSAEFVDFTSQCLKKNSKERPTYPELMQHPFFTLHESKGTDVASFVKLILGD

[5] = biological target: T3, Bone morphogenetic protein receptor type-2 (Homo sapiens, UniProt Q13873)
T3 sequence (Q13873 whole entry): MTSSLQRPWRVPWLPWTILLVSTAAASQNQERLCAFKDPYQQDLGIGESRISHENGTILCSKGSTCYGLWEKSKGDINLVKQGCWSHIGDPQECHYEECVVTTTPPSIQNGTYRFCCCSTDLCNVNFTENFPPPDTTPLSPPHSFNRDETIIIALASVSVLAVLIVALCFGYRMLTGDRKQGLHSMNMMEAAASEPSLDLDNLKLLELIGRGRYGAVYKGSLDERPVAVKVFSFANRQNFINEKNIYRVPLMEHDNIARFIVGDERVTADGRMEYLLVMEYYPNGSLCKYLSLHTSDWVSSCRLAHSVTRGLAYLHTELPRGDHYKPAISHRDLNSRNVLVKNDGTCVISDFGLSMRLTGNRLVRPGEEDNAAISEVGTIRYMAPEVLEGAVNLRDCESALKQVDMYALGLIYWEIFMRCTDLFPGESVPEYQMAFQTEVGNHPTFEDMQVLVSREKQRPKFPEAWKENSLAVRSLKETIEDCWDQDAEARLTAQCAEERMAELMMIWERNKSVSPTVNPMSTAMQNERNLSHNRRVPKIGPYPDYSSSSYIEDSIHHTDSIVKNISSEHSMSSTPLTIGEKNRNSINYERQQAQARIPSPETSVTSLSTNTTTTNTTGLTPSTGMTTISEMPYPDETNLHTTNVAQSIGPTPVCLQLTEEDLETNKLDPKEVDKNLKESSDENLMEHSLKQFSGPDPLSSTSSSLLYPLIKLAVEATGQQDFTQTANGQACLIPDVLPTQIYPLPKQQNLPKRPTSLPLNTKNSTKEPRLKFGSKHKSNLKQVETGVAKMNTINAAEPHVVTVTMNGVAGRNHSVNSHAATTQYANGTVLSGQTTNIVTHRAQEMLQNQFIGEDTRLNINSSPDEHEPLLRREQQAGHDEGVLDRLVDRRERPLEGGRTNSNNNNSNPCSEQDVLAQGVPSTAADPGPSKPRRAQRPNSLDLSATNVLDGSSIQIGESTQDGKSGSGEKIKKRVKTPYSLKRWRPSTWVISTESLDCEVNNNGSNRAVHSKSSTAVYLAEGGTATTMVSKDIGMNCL

[6] = biological target: Tyrosine-protein kinase HCK (Homo sapiens, UniProt P08631)
[7] = biological target: Citron Rho-interacting kinase (Homo sapiens, UniProt O14578)

Measured: Kd
Also: in the data inactive means no Kd found up to 30 µM.

DnaJ homolog subfamily A member 1, sequence (P31689 whole entry): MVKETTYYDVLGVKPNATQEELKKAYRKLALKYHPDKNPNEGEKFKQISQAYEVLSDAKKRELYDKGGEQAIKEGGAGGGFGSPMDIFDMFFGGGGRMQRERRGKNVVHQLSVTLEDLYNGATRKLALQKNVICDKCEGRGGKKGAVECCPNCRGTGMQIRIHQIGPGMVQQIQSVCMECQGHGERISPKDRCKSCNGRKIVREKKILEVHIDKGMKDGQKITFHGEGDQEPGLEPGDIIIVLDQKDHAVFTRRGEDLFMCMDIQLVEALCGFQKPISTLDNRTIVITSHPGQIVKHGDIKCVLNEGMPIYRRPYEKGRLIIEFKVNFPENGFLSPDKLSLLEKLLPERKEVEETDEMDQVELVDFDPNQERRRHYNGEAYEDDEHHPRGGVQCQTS
Tyrosine-protein kinase HCK, sequence (P08631 whole entry): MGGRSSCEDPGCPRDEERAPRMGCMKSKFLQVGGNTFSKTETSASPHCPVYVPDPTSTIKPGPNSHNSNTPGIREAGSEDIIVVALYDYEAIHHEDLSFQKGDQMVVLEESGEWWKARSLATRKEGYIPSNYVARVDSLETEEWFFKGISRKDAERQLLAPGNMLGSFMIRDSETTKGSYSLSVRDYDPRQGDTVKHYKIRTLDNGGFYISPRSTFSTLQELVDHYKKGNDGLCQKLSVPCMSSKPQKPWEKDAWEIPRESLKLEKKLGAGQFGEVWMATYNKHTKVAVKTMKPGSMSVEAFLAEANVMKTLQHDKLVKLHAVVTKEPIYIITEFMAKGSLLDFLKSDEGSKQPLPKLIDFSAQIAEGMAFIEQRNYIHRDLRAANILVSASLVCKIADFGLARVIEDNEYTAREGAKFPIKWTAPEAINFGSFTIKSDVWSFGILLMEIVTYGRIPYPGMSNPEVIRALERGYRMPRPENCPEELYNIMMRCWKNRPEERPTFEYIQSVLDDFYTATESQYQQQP
Citron Rho-interacting kinase, sequence (O14578 whole entry): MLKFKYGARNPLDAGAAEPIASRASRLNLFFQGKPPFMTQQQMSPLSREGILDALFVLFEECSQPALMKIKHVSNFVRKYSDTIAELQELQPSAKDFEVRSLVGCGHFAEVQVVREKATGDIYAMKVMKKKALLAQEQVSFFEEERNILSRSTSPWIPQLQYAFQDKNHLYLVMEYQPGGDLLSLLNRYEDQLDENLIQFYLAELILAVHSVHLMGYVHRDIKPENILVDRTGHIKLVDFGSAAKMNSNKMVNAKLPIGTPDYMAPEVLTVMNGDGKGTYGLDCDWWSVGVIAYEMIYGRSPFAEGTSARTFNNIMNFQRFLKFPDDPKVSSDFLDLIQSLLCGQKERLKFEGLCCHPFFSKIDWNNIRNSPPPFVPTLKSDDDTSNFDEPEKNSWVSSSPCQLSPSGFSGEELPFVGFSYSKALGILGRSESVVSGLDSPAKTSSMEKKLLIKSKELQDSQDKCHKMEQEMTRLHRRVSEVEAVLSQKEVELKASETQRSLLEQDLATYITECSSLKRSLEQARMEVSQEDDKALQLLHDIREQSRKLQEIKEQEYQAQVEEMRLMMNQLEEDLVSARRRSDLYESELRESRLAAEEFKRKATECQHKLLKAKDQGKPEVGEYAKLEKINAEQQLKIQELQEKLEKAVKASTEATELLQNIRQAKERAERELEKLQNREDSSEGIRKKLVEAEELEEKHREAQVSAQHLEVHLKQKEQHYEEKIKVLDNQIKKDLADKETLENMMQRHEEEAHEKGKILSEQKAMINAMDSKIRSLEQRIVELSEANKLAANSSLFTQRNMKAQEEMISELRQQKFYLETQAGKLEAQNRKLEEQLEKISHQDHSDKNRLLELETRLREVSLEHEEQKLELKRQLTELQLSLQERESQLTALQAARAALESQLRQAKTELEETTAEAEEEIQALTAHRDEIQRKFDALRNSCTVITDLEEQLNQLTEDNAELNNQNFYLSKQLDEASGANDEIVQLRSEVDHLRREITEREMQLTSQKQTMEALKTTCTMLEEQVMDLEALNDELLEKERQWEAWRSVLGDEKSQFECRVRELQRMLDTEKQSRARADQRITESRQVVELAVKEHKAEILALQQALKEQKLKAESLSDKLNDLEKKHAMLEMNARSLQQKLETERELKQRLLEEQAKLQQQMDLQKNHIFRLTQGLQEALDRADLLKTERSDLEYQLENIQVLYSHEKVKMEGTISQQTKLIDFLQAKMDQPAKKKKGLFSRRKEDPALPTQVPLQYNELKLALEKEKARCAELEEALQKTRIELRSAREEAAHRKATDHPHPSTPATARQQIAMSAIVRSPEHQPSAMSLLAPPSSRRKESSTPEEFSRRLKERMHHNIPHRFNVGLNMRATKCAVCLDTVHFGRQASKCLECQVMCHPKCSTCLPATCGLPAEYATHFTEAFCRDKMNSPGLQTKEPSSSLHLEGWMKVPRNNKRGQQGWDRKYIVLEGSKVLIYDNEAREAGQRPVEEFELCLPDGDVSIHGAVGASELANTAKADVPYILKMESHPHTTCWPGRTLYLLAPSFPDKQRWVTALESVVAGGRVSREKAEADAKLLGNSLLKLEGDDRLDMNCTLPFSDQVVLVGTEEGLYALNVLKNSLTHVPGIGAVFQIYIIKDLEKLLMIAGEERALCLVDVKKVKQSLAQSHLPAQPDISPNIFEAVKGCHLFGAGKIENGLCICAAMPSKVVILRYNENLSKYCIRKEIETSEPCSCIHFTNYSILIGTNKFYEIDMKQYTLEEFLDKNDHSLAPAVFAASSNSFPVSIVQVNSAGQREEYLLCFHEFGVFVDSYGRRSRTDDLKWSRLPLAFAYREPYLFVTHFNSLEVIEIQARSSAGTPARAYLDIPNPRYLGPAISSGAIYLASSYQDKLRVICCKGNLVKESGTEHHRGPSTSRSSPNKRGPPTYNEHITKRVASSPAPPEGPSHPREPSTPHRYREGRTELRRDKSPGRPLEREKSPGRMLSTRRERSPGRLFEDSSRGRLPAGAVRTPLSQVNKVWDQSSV
Atypical kinase COQ8A, mitochondrial, sequence (Q8NI60 whole entry): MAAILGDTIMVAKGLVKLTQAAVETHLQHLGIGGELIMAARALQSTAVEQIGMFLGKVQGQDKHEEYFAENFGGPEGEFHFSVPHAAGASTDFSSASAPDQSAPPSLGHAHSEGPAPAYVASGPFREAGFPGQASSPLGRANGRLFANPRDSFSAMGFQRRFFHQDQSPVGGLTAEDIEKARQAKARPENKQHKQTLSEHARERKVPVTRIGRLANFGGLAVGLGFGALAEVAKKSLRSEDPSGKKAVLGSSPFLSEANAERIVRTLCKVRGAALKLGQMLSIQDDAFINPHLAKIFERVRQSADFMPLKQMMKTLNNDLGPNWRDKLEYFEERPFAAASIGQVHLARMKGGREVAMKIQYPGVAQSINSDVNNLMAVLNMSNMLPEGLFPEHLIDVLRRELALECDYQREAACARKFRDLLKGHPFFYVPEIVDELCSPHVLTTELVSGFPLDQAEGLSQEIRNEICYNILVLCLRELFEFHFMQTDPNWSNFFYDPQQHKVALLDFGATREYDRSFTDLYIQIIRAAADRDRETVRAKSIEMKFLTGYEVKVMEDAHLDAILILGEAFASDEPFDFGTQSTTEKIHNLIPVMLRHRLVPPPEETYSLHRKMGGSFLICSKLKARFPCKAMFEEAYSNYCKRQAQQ

O=C(NOC[C@H](O)CO)c1ccc(F)c(F)c1Nc1ccc(I)cc1F [MIRDAMETINIB]
inactive: [1] > 30 µM | [2] > 30 µM | [3] > 30 µM | [4] > 30 µM | [5] > 30 µM | [6] > 30 µM | [7] > 30 µM

CC1(COc2ccc3c(c2)ncn3-c2ccc3cccc(N4CCC(N)CC4)c3n2)COC1 [CRENOLANIB]
inactive: [1] > 30 µM | [2] > 30 µM | [3] > 30 µM | [4] > 30 µM | [5] > 30 µM | [6] > 30 µM | [7] > 30 µM

COc1ccc2c(OCc3nnc4ccc(-c5ccccc5)nn34)ccnc2c1 [AMG-208]
inactive: [1] > 30 µM | [2] > 30 µM | [3] > 30 µM | [4] > 30 µM | [5] > 30 µM | [6] > 30 µM | [7] > 30 µM

COc1ccc(-c2ccc3ncc4c(c3c2)n(-c2ccc(N3CCNCC3)c(C(F)(F)F)c2)c(=O)n4C)cn1 [BGT-226 FREE BASE]
inactive: [1] > 30 µM | [2] > 30 µM | [3] > 30 µM | [4] > 30 µM | [5] > 30 µM | [6] > 30 µM | [7] > 30 µM

From ChEMBL document CHEMBL3991601, “The target landscape of clinical kinase drugs” (Science, 2017)
